Results as given in the supplement of paper PMC10307832.

Assays:
Test in all cases: relative viability (nuclei count vs DMSO), 5 days (fraction); higher = more cells survive
[1] = compound: CCN(CCO)CCCC(C)Nc1ccnc2cc(Cl)ccc12 [Hydroxychloroquine] + Nc1nc2[nH]cc(CCc3ccc(C(=O)N[C@@H](CCC(=O)O)C(=O)O)cc3)c2c(=O)[nH]1 [Pemetrexed] (partner 0.2 µM)
In short: (§1)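 Medians of duplicate plates are given as relative viability. That measure is the nuclei count in treated wells divided by the count in vehicle wells. Counts were taken on 4× images of lung cancer cell lines in 1536-well plates, 5 days after pin-tool dosing the day after seeding with one drug alone or a fixed anchor-drug dose plus five library-drug doses (not always all listed) in √10 steps.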

[2] = compound: CCN(CCO)CCCC(C)Nc1ccnc2cc(Cl)ccc12 [Hydroxychloroquine] + C[C@@H](Oc1cc(-c2cnn(C3CCNCC3)c2)cnc1N)c1c(Cl)ccc(F)c1Cl [Crizotinib] (partner 1 µM)
In short: as §1

[3] = compound: CCN(CCO)CCCC(C)Nc1ccnc2cc(Cl)ccc12 [Hydroxychloroquine] + Cc1nc(Nc2ncc(C(=O)Nc3c(C)cccc3Cl)s2)cc(N2CCN(CCO)CC2)n1 [Dasatinib] (partner 0.075 µM)
In short: as §1

[4] = compound: CCN(CCO)CCCC(C)Nc1ccnc2cc(Cl)ccc12 [Hydroxychloroquine] + CS(=O)(=O)CCNCc1ccc(-c2ccc3ncnc(Nc4ccc(OCc5cccc(F)c5)c(Cl)c4)c3c2)o1 [Lapatinib] (partner 2 µM)
In short: as §1

Cell Line	relative viability ([1]; first compound 0.5 µM)	relative viability ([1]; first compound 1.581 µM)	relative viability ([1]; first compound 5 µM)	relative viability ([1]; first compound 15.81 µM)	relative viability ([1]; first compound 50 µM)	relative viability ([2]; first compound 0.5 µM)	relative viability ([2]; first compound 1.581 µM)	relative viability ([2]; first compound 5 µM)	relative viability ([2]; first compound 15.81 µM)	relative viability ([2]; first compound 50 µM)	relative viability ([3]; first compound 0.5 µM)	relative viability ([3]; first compound 1.581 µM)	relative viability ([3]; first compound 5 µM)	relative viability ([3]; first compound 15.81 µM)	relative viability ([3]; first compound 50 µM)	relative viability ([4]; first compound 0.5 µM)	relative viability ([4]; first compound 1.581 µM)	relative viability ([4]; first compound 5 µM)	relative viability ([4]; first compound 15.81 µM)	relative viability ([4]; first compound 50 µM)
COR-L23	0.192	0.189	0.21	0.211	0.186	0.786	0.573	0.895	0.868	0.86	0.472	0.543	0.533	0.421	0.534	0.681	0.992	0.992	1.23	1.21
NCI-H1755	0.573	0.426	0.42	0.386	0.438	0.983	0.768	0.86	0.866	0.879	0.498	0.381	0.422	0.392	0.394	1.06	0.875	1.02	1	1.02
NCI-H1437	0.326	0.314	0.324	0.33	0.321	0.824	0.985	0.963	0.97	1.03	0.371	0.493	0.375	0.429	0.509	0.833	1.05	0.885	0.758	0.845
NCI-H2085	0.885	0.773	0.838	0.809	0.9	0.904	0.783	0.826	0.753	0.847	0.274	0.267	0.223	0.274	0.232	0.83	0.666	0.832	0.742	0.873
H3255	0.566	0.603	0.543	0.586	0.477	0.848	0.979	0.716	0.841	0.985	0.367	0.386	0.3	0.281	0.369	0.272	0.243	0.205	0.248	0.202
NCI-H661	0.962	0.904	0.91	0.877	0.872	0.939	0.962	1.05	0.927	1.09	0.841	0.872	0.764	0.722	0.894	0.433	0.426	0.43	0.467	0.465
LOU-NH91	0.359	0.413	0.451	0.386	0.427	0.726	0.727	0.742	0.739	0.741	0.559	0.453	0.588	0.581	0.593	0.759	0.591	0.776	0.754	0.738
NCI-H1650	0.337	0.331	0.342	0.397	0.346	0.92	0.903	0.999	1.01	1.04	0.425	0.357	0.241	0.296	0.303	0.844	0.697	0.702	0.75	0.765
NCI-H3122	0.189	0.205	0.359	0.188	0.199	0.283	0.275	0.275	0.252	0.279	0.879	0.858	0.894	0.92	0.867	1.02	1.01	1.05	1	1.07
RERF-LC-KJ	0.448	0.466	0.457	0.489	0.467	0.942	0.785	0.786	0.848	0.81	0.71	0.731	0.793	0.734	1.02	0.847	0.805	0.942	0.779	0.94
NCI-H1651	0.628	0.626	0.602	0.597	0.449	0.926	0.884	0.83	0.853	0.911	0.421	0.554	0.427	0.436	0.396	0.811	0.925	0.729	0.979	0.988
NCI-H2087	0.634	0.669	0.7	0.709	0.771	1.02	0.982	1.09	0.864	1.11	0.96	0.77	0.794	0.954	0.969	1.11	0.907	0.942	0.946	1.11
